Data as given in US8591880B2, “Gut flora and weight management” (priority 2007, dated 2013).
Like-named read-outs stand apart in the source and are kept apart here.

Key:
Type in all cases: cell-based
Lactobacillus = assay: In vitro antibiotic susceptibility strip test, Lactobacillus; details: colonies from feces of ob/ob mice; for Susceptibility class, Lactobacillus: MRS/cystein agar, strip test; for Count in brackets, Lactobacillus: fraction given, not defined
Enterobacteria = assay: In vitro antibiotic susceptibility strip test, Enterobacteria; details: for Susceptibility class, Enterobacteria / Count in brackets, Enterobacteria: colonies from feces of ob/ob mice; for Susceptibility class, Enterobacteria: Mueller Hinton agar, strip test; for Count in brackets, Enterobacteria: fraction given, not defined; for Growth / susceptibility of fecal enterobacteria, in words: summary of Table 1
Bifidobacteria = assay: In vitro antibiotic susceptibility strip test, Bifidobacteria; details: colonies from feces of ob/ob mice; for Susceptibility class, Bifidobacteria: MRS/cystein agar, strip test; for Count in brackets, Bifidobacteria: fraction given, not defined
Bacteroides = assay: In vitro antibiotic susceptibility strip test, Bacteroides; details: for Count in brackets, Bacteroides: fraction given, not defined
[1] = colonies from feces of ob/ob mice
[2] = colonies from feces of ob/ob mice, Brucella agar, strip test

Compound | Susceptibility class, Lactobacillus (Lactobacillus) | Count in brackets, Lactobacillus (Lactobacillus) | Susceptibility class, Enterobacteria (Enterobacteria) | Count in brackets, Enterobacteria (Enterobacteria) | Growth / susceptibility of fecal enterobacteria, in words (Enterobacteria) | Susceptibility class, Bifidobacteria (Bifidobacteria) | Count in brackets, Bifidobacteria (Bifidobacteria) | Susceptibility class, Bacteroides (Bacteroides) | Count in brackets, Bacteroides (Bacteroides; [1]) | Susceptibility class, Bacteroides (Bacteroides; [2])
CC1(C)S[C@@H]2[C@H](NC(=O)[C@H](N)c3ccc(O)cc3)C(=O)N2[C@H]1C(=O)O [Amoxicillin, amoxicillin] | S | 33/33 | R | 0/19 | resistant | S | 3/3 | S/R (14/16) | S/R (14/16) | 
CC1(C)S[C@@H]2[C@H](NC(=O)[C@H](N)c3ccccc3)C(=O)N2[C@H]1C(=O)O [Ampicillin, ampicillin] | S | 33/33 | S/R | 13/19 | only partially sensitive | S | 3/3 |  | 16/16 | S
CCn1cc(C(=O)O)c(=O)c2cc(F)c(N3CCNCC3)cc21 [Norfloxacin, norfloxacin] | S/R | 25/33 | S | 19/19 | capable of suppressing the growth | R | 0/3 |  | 0/16 | R
